B1: short-chain dehydrogenase/reductase from Burkholderia phymatum (enzyme)
chain: MFEFDGKVAVITGAGSGFGRAFAEKGASLGMKLVLADVDEGALARTVDTLRAAGAEVIGVRTDVSNGAQVQALADAALEAFGKVHLLFNNAGVGAGGFLWESSANDWAWVFGVNVMGVAHGVRVFAPIMLGQNEAAHIVNTASVAGLLSPPSMGIYNASKHAVVSLTETLYHDLRNAGGEVGCSLLCPAFVPTGIADAERVRPEALRNEAQPTRSQLAADRQLQRAVRSGKLGATDVATLTFEAIAERRFYILTHPAILATVRLRHEDIELQRNPTDPLSLKPEVKEAR
notes: short-chain dehydrogenase/reductase, Burkholderia phymatum STM815, UniProt B2JGP2, amino acids 1-289; Crystallised with 4 mM NAD; each monomer holds NAD and an acetate; 278 residues of each monomer are seen in the structure; also called BpSDR; SDR from B. phymatum; source: E. coli BL21(DE3), purified (IMAC, SEC); not shown: His6 (MAHHHHHH, noncleavable hexahistidine fusion tag from the vector …)

Key:
BpSDR = molecular target: T1, BpSDR (Paraburkholderia phymatum, UniProt B2JGP2); experiment: X-ray crystal structure, […] Å; details: co-crystallised with 4 mM NAD, pH 4.5-4.6, 14 °C; cofactor-binding domain; acetate from crystallisation solution in substrate site
T1 construct: gene Bphy_1038; residues 1-289, noncleavable N-terminal His6 tag (MAHHHHHHM-ORF), vector pBG1861, E. coli BL21(DE3); SEC monomer or dimer, prototypical SDR dimers by crystal symmetry

[1] = molecular target: the molecule itself; experiment: crystal structure; space group C222(1), 1.80 A, three monomers in the asymmetric unit, with NAD and acetate; dimers generated by crystallographic symmetry

Row | Molecule | X-ray crystal structure, 1.80 Å (BpSDR) | binding result [1]
1 | NC(=O)c1ccc[n+]([C@@H]2O[C@H](COP(=O)(O)OP(=O)(O)OC[C@H]3O[C@@H](n4cnc5c(N)ncnc54)[C@H](O)[C@@H]3O)[C@@H](O)[C@H]2O)c1 [NAD] | each monomer having an acetate molecule in the substrate-binding domain and a NAD molecule | –
2 | B1 | – | binds

From publication PMC8805215, “Crystal structure of a short-chain dehydrogenase/reductase from Burkholderia phymatum in complex with NAD” (Acta Crystallographica. Section F, Structural Biology …, 2022)
